For 1 compound, IC50 results are on record in publication PMC7585637 (Biomolecules & Therapeutics, 2020).

In the assay the target is T1, SIRT1 (Homo sapiens, UniProt Q96EB6).
T1 sequence (Q96EB6 2-747): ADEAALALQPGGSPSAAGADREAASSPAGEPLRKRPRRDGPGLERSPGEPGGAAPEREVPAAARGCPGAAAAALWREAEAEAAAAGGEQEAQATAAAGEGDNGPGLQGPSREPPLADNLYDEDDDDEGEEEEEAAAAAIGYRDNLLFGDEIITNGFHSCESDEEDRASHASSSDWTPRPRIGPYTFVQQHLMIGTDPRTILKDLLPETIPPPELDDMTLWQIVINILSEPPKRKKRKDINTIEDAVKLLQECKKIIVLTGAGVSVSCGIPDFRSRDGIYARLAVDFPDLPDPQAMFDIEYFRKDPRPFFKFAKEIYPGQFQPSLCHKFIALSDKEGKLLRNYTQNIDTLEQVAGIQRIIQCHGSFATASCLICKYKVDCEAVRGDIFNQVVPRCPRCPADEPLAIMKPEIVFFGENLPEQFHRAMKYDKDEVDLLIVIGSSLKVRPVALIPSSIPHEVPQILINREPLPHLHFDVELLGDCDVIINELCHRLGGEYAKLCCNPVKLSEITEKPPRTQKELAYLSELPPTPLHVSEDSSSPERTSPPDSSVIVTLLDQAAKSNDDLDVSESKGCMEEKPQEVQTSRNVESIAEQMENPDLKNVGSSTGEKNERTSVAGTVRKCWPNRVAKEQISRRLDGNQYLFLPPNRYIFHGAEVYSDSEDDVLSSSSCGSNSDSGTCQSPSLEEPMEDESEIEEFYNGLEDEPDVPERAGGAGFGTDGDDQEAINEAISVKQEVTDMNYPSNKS
The experiment in a line: Fluor-de-Lys SIRT1 fluorometric deacetylase assay. Format: biochemical.

In general, IC50 refers to the point on the concentration scale where inhibition reaches its midpoint.

As for `CC(C)(C)c1cc(C=C2C(=O)NC(=S)NC2=O)cc(C(C)(C)C)c1O` [MHY2256, 5-(3,5-Di-tert-butyl-4-hydroxybenzylidene)-2-thioxodihydropyrimidine-4,6(1H,5H)-dione], the IC50 came out at 1020 nM.
